These results are taken from patent publication US20250034182A1, “PHOSPHOLIPID COMPOUNDS AND METHODS OF MAKING AND USING THE SAME” (priority 2021, published 2025).

One may read the EC50 as the concentration needed to bring the measured effect to its halfway point.

In this assay the test system is Respiratory syncytial virus recombinant with luciferase (RSV-Luc5) in HEp-2 cells. The assay can be described thus: HEp-2 RSV-Luc5 384-well assay (EC50 RSVFLUC Hep2-384, Example R). The format is cell-based. To be noted: human respiratory syncytial virus, HEp-2, 72 h, read-out: RSV Hep-2 FLuc EC50 (nM) (per Ex. R). The text has this:
HEp-2 cell line was purchased from ATCC (Manassas, VA Cat #CCL-23) and maintained in Dulbecco's […] (DMEM) (Corning, New York, NY, Cat #15-018CM) supplemented with 10% fetal bovine serum (FBS) (Hyclone, Logan, UT, Cat #SH30071-03) and 1× Penicillin-Streptornycin-L-Glutamine (Corning, New York, NY, Cat #30-009-CI). Cells were passaged 2 times per week to maintain sub-confluent densities and were used for experiments at passage 5-20. Respiratory syncytial virus recombinant with luciferase (RSV-Luc5) direct pelleted virus (≥1×107 TCID50/ml) was purchased from Microbiologics (Saint Cloud, MN). Viral replication was determined in HEp-2 cells in the following manner.
Compounds are prepared in 384-well polypropylene plates (Greiner, Monroe, NC, Cat #784201) with 8 compounds per plate in grouped replicates of 4 at 10 serially diluted concentrations (1:3).
HEp-2 cells were suspended in DMEM (supplemented with 10% FBS and 1×Penicillin-Streptonycin-L-Glutimine) and 60 μL of 4,000 cells per well were seeded into 384-well plates (Greiner, Monroe, NC, Cat #781080) using Biotek MultiFlo dispenser. After overnight incubation at 37° C. and 5% CO2, 0.4 uL of three-fold serial dilutions of compound was added to each well using a Biomek FX pipette station. RSV-Luc5 viruses were diluted in DMEM (supplemented with 10% FBS and 1× Penicillin-Streptonycin-L-Glutainie) at an MOI=0.5. Virus suspension was added to each 384-well compound plate at 20 uL per well using a Biotek MultiFlo dispenser. The assay plates were incubated for 3 days at 37° C. and 5% CO2. At the end of incubation, One-Glo reagent (Promega, Madison, WI, Cat #E6120) was prepared. The assay plate and the reagent were equilibrated to room temperature for 30 minutes. 50 uL per well of medium was removed from assay plate and 40 uL per well of One-Glo reagent was added to each plate by Biomek FX. The plates were sat at room temp for 15 minutes. Viral replication was then assessed by measuring luminescence signal using and Envision plate reader. Remdesivir was used as positive control and DMSO was used as negative control. Values were normalized to the positive and negative controls (as 0% and 100% replication, respectively) and data was fitted using non-linear regression analysis by Gilead's dose response tool. The EC50 value for each compound was then determined as the concentration reducing the viral replication by 50%.
Regarding `CCCCCCCCCCCCCCCCCCOC[C@H](COP(=O)(O)OC[C@@]1(C#N)O[C@@H](c2ccc3c(N)ncnn23)[C@H](O)[C@@H]1O)OCc1cc(F)cc(C#N)c1` [Compound 1, ((2R,3S,4R,5S)-5-(4-aminopyrrolo[2,1-f][1,2,4]triazin-7-yl)-2-cyano-3,4-dihydroxytetrahydrofuran-2-yl)methyl ((R)-2-((3-cyano-5-fluorobenzyl)oxy)-3-(octadecyloxy)propyl) hydrogen phosphate], the EC50 amounted to 100 nM. The same measure for `CCCCCCCCCCCCCCCCCCOC[C@H](COP(=O)(O)OC[C@@]1(C#N)O[C@@H](c2ccc3c(N)ncnn23)[C@H](O)[C@@H]1O)OCc1ccc(C#N)c(Cl)c1` [Compound 7, ((2R,3S,4R,5S)-5-(4-aminopyrrolo[2,1-f][1,2,4]triazin-7-yl)-2-cyano-3,4-dihydroxytetrahydrofuran-2-yl)methyl ((R)-2-((3-chloro-4-cyanobenzyl)oxy)-3-(octadecyloxy)propyl) hydrogen phosphate]: 84 nM. For the compound `CCCCCCCCCCCCCCCCCCOC[C@H](COP(=O)(O)OC[C@@]1(C#N)O[C@@H](c2ccc3c(N)ncnn23)[C@H](O)[C@@H]1O)OCc1ccc(C#N)nc1` [Compound 19, ((2R,3S,4R,5S)-5-(4-aminopyrrolo[2,1-f][1,2,4]triazin-7-yl)-2-cyano-3,4-dihydroxytetrahydrofuran-2-yl)methyl ((R)-2-((6-cyanopyridin-3-yl)methoxy)-3-(octadecyloxy)propyl) hydrogen phosphate], the EC50 worked out at 48 nM. In the case of `CCCCCCCCCCCCCCCCCCOC[C@H](COP(=O)(O)OC[C@@]1(C#N)O[C@@H](c2ccc3c(N)ncnn23)[C@H](O)[C@@H]1O)Oc1cccc(C#N)n1` [Compound 21, ((2R,3S,4R,5S)-5-(4-aminopyrrolo[2,1-f][1,2,4]triazin-7-yl)-2-cyano-3,4-dihydroxytetrahydrofuran-2-yl)methyl ((R)-2-((6-cyanopyridin-2-yl)oxy)-3-(octadecyloxy)propyl) hydrogen phosphate], the 50% effective concentration (EC50) is 136 nM.

In the case of `CCCCCCCCCCCCCCCCCCC[C@H](COP(=O)(O)OC[C@@]1(C#N)O[C@@H](c2ccc3c(N)ncnn23)[C@H](O)[C@@H]1O)OCc1cc(F)cc(C#N)c1` [Compound 25, ((2R,3S,4R,5S)-5-(4-aminopyrrolo[2,1-f][1,2,4]triazin-7-yl)-2-cyano-3,4-dihydroxytetrahydrofuran-2-yl)methyl ((R)-2-((3-cyano-5-fluorobenzyl)oxy)henicosyl) hydrogen phosphate], the EC50 is 291 nM.

Consider `CCCCCCCCCCCCCCCCC[C@H](COP(=O)(O)OC[C@@]1(C#N)O[C@@H](c2ccc3c(N)ncnn23)[C@H](O)[C@@H]1O)OCc1cc(F)cc(C#N)c1` [Compound 36, ((2R,3S,4R,5S)-5-(4-aminopyrrolo[2,1-f][1,2,4]triazin-7-yl)-2-cyano-3,4-dihydroxytetrahydrofuran-2-yl)methyl ((R)-2-((3-cyano-5-fluorobenzyl)oxy)nonadecyl) hydrogen phosphate], for which the half-maximal effective concentration (EC50) turned out to be 155 nM. With `CCCCCCCCCCCCCCCCCC[C@@H](COP(=O)(O)OC[C@@]1(C#N)O[C@@H](c2ccc3c(N)ncnn23)[C@H](O)[C@@H]1O)OCc1cc(F)cc(C#N)c1` [Compound 37, ((2R,3S,4R)-5-(4-aminopyrrolo[2,1-f][1,2,4]triazin-7-yl)-2-cyano-3,4-dihydroxytetrahydrofuran-2-yl)methyl ((S)-2-((3-cyano-5-fluorobenzyl)oxy)icosyl) hydrogen phosphate] the figure was 304 nM; with `CCCCCCCCCCCCCCCCCCCC[C@H](COP(=O)(O)OC[C@@]1(C#N)O[C@@H](c2ccc3c(N)ncnn23)[C@H](O)[C@@H]1O)Oc1cccc(C#N)c1` [Compound 51, ((2R,3S,4R,5S)-5-(4-aminopyrrolo[2,1-f][1,2,4]triazin-7-yl)-2-cyano-3,4-dihydroxytetrahydrofuran-2-yl)methyl ((R)-2-(3-cyanophenoxy)docosyl) hydrogen phosphate], 421 nM; with `CCCCCCCCCCCCCCCCCOC[C@H](COP(=O)(O)OC[C@@]1(C#N)O[C@@H](c2ccc3c(N)ncnn23)[C@H](O)[C@@H]1O)OCc1cc(F)cc(C#N)c1` [Compound 53, ((2R,3S,4R,5S)-5-(4-aminopyrrolo[2,1-f][1,2,4]triazin-7-yl)-2-cyano-3,4-dihydroxytetrahydrofuran-2-yl)methyl ((R)-2-((3-cyano-5-fluorobenzyl)oxy)-3-(heptadecyloxy)propyl) hydrogen phosphate], 113 nM. With `CCCCCCCCCCCCCCCCCCOC[C@H](COP(=O)(O)OC[C@@]1(C#N)O[C@@H](c2ccc3c(N)ncnn23)[C@H](O)[C@@H]1O)OCc1cccc(C#N)n1` [Compound 68, ((2R,3S,4R)-5-(4-aminopyrrolo[2,1-f][1,2,4]triazin-7-yl)-2-cyano-3,4-dihydroxytetrahydrofuran-2-yl)methyl ((R)-2-((6-cyanopyridin-2-yl)methoxy)-3-(octadecyloxy)propyl) hydrogen phosphate] the figure was 118 nM. Consider `CCCCCCCCCCCCCCCCCCOC[C@H](COP(=O)(O)OC[C@@]1(C#N)O[C@@H](c2ccc3c(N)ncnn23)[C@H](O)[C@@H]1O)OCc1ccc(C#N)cc1OC` [Compound 73, ((2R,3S,4R)-5-(4-aminopyrrolo[2,1-f][1,2,4]triazin-7-yl)-2-cyano-3,4-dihydroxytetrahydrofuran-2-yl)methyl ((R)-2-((4-cyano-2-methoxybenzyl)oxy)-3-(octadecyloxy)propyl) hydrogen phosphate], for which the EC50 was 195 nM. Consider `CCCCCCCCCCCCCCOC[C@H](COP(=O)(O)OC[C@@]1(C#N)O[C@@H](c2ccc3c(N)ncnn23)[C@H](O)[C@@H]1O)OCc1ccc(C#N)cc1F` [Compound 75, ((2R,3S,4R,5S)-5-(4-aminopyrrolo[2,1-f][1,2,4]triazin-7-yl)-2-cyano-3,4-dihydroxytetrahydrofuran-2-yl)methyl ((R)-2-((4-cyano-2-fluorobenzyl)oxy)-3-(tetradecyloxy)propyl) hydrogen phosphate], for which the EC50 turned out to be 385 nM.
